{"source": "patent US20050228046A1", "about": "“Alkylamine as an antimicrobial agent in ophthalmic compositions” (ADVANCED MEDICAL OPTICS, INC., priority 2004, published 2005)", "key": {"[1]": {"test_system": "Candida albicans, ATCC 10231", "experiment": "Microbiology challenge test, log drop", "assay_type": "cell-based", "description": "(§1) The following is the procedure by which various antimicrobial agents and solutions are tested for their ability to reduce microbial loads over short periods of time, typically 24 hours and less. The procedure is a basic microbiology challenge test, which involves the inoculation of test product aliquots with a known number of viable cells of several test organisms, and assay for the survivors at various time intervals. The results are used to calculate log drops at soak times and construct kill-curves (graphs of survivors versus time) if desired.\n(§2) Candida albicans, ATCC 10231, is one of five organisms specified per FDA and ISO/CLI tests for the testing of contact lens disinfectants (FDA Premarket Notification (510k) Guidance Document for Contact Lens Care Products, Appendix B, Apr. 1, 1997 and ISO/FDIS 14729: Ophthalmic optics-Contact lens care products-Microbiological requirements and test methods for products and regimens for hygienic management of contact lenses, January 2001). Contact lens disinfectants are also known as contact lens multi-purpose solutions when they are used for rinsing, cleaning, disinfection, storage and rewetting contact lenses. The five FDA/ISO specified test organisms are listed below: • Serratia marcescens, ATCC 13880 • Staphylococcus aureus, ATCC 6538 • Pseudomonas aeruginosa, ATCC 9027 • Candida albicans, ATCC 10231 • Fusarium solani, ATCC 36031\n(§3) The specific test procedure for testing antimicrobial activity against the five FDA/ISO specified test organisms is as follows (C. albicans is provided as a specific example): Test samples are sterile-filtered through a 0.22 micron sterile filter into sterile plastic high density polyethylene bottles or plastic flasks. A 10-mL aliquot of test sample is aseptically transferred into a sterile polystyrene plastic test tube. Sterile saline (0.90 w/v % NaCl) with 0.05 w/v % Polysorbate 80 (SS+TWEEN) is transferred into a separate control tube. All samples and control are stored at 20-25° C. throughout the duration of the test.\n(§4) Test cultures of Candida albicans, ATCC 10231 are prepared in the conventional manner. Candida albicans cultures are grown on agar slants from primary frozen, lyophilized or “Culti-loop®” cultures. Three mL of sterile 0.9% saline is used to gently dislodge culture growth from the agar surface. The resulting harvest is transferred to an appropriate screw cap test tube containing glass beads and vortexed for approximately one minute. The vortexed harvest is diluted as needed with sterile 0.9% saline to prepare the culture inoculum with a concentration of 1×10e8 CFU/mL. Fifty microliters of culture inoculum is added to 10.0 mL of each test sample and control, so that the final inoculum level is in the range of 1×10e5 to 1×10e6 CFU(colony forming units) per mL of Candida albicans, ATCC 10231. Each sample and control tube is vortexed briefly to disperse the inoculum. Contact time intervals for testing activity against Candida are typically 4 or 6 hours, to conform to the intended product label instructions for contact lens soak time.\n(§5) Aerobic Plate Count Methods are performed in order to quantitate test samples for their levels of survivors. At appropriate assay times, 0.5 mL well-vortexed aliquots are removed from sample tubes and added to glass test tubes containing 4.5 mL Letheen Neutralizing Broth media (Berton, Dickinson and Company, Sparks, Md.). After a previously determined, validated neutralizing time period, these samples are diluted 10-fold through serial dilutions using glass test tubes containing 4.5 mL Letheen Neutralizing Broth media. Aliquots of 0.1 mL are removed from each dilution tube and spread-plate applied to agar plates containing Sabouraud Dextrose Agar (SAB)(Berton, Dickinson and Company, Sparks, Md.). 10^1 to 10^4 CFU/mL survivor levels are quantitated. […]"}, "[2]": {"test_system": "Fusarium solani, ATCC 36031", "experiment": "Microbiology challenge test, log drop", "assay_type": "cell-based", "description": "as §1, §2, §3, §4, §5"}, "[3]": {"test_system": "Pseudomonas aeruginosa, ATCC 9027", "experiment": "Microbiology challenge test, log drop", "assay_type": "cell-based", "description": "as §1, §2, §3, §4, §5"}, "[4]": {"test_system": "Serratia marcescens, ATCC 13880", "experiment": "Microbiology challenge test, log drop", "assay_type": "cell-based", "description": "as §1, §2, §3, §4, §5"}, "[5]": {"test_system": "Staphylococcus aureus, ATCC 6538", "experiment": "Microbiology challenge test, log drop", "assay_type": "cell-based", "description": "as §1, §2, §3, §4, §5"}, "[6]": {"experiment": "Contact lens uptake: content left in solution after shaking with lenses", "assay_type": "physicochemical", "conditions": "Myristylamine with TPGS 20 fold; for remaining content left in solution, Acuvue / remaining content left in solution, Purevision: 15 ml solution, closed system shaken 6 days at room temperature; for remaining content left in solution, Acuvue: 2 Acuvue lenses; for remaining content left in solution, Purevision: 2 Purevision lenses; for remaining content left in solution, Without Lens: 15 ml system without lenses, shaken 6 days at room temperature", "description": "The results in Table 9A show the remaining quaternary ammonium and tertiary amine content left in solution after a 15 ml-solution-2 lenses closed system has been shaken for 6 days at room temperature. […] The control which was run for this experiment, which includes the remaining ingredients in the solutions referenced in Table 9A are listed in Table 9B. As one of ordinary skill in the art would realize, the less quaternary ammonium or tertiary amine content remaining in solution after the shaking period, the higher the absorption by the lenses."}, "[7]": {"test_system": "five FDA/ISO specified test organisms", "experiment": "Antimicrobial activity against the five-microbial panel, FDA/ISO disinfection criteria", "assay_type": "cell-based", "conditions": "result in words", "description": "The following is the procedure by which various antimicrobial agents and solutions are tested for their ability to reduce microbial loads over short periods of time, typically 24 hours and less. The procedure is a basic microbiology challenge test, which involves the inoculation of test product aliquots with a known number of viable cells of several test organisms, and assay for the survivors at various time intervals. The results are used to calculate log drops at soak times and construct kill-curves (graphs of survivors versus time) if desired. Candida albicans, ATCC 10231, is one of five organisms specified per FDA and ISO/CLI tests for the testing of contact lens disinfectants (FDA Premarket Notification (510k) Guidance Document for Contact Lens Care Products, Appendix B, Apr. 1, 1997 and ISO/FDIS 14729: Ophthalmic optics-Contact lens care products-Microbiological requirements and test methods for products and regimens for hygienic management of contact lenses, January 2001). Contact lens disinfectants are also known as contact lens multi-purpose solutions when they are used for rinsing, cleaning, disinfection, storage and rewetting contact lenses. The five FDA/ISO specified test organisms are listed below: • Serratia marcescens, ATCC 13880 • Staphylococcus aureus, ATCC 6538 • Pseudomonas aeruginosa, ATCC 9027 • Candida albicans, ATCC 10231 • Fusarium solani, ATCC 36031 Candida albicans is often the most resistant of the five organisms to commonly used cationic antimicrobial agents in contact lens multi-purpose solutions. Thus, achievement of adequate antimicrobial activity against Candida is often the most difficult task to pass a particular disinfection efficacy standard. FDA and ISO guidelines specify two disinfection efficacy standards, indicated in the table below: Stand Alone Disinfectant (Primary) Criteria: [table] The specific test procedure for testing antimicrobial activity against the five FDA/ISO specified test organisms is as follows (C. albicans is provided as a specific example): Test samples are sterile-filtered through a 0.22 micron sterile filter into sterile plastic high density polyethylene bottles or plastic flasks. A 10-mL aliquot of test sample is aseptically transferred into a sterile polystyrene plastic test tube. Sterile saline (0.90 w/v % NaCl) with 0.05 w/v % Polysorbate 80 (SS+TWEEN) is transferred into a separate control tube. All samples and control are stored at 20-25° C. throughout the duration of the test."}, "[8]": {"conditions": "Table 8B: Cetylamine 0.0001 % w/w with PHMB 0.00002, Pluronic F87 0.05, pH 7.7"}, "[9]": {"conditions": "Table 8B: Cetylamine 0.0001 % w/w, PHMB 0.00, Pluronic F87 0.05, pH 7.7"}, "[10]": {"conditions": "Table 8B: Cetylamine 0.000125 % w/w, PHMB 0.00, Pluronic F87 0.05, pH 7.7"}, "[11]": {"conditions": "Table 8B: Cetylamine 0.0003 % w/w, PHMB 0.00, Pluronic F87 0.05, pH 7.7"}, "[12]": {"conditions": "Cetylpyridinium Chloride 0.001 w/v %, TPGS 0, Tetronic 1307 0.05"}, "[13]": {"conditions": "Cetylpyridinium Chloride 0.001 w/v %, TPGS 0.025, Tetronic 1307 0.05"}, "[14]": {"conditions": "Table 2B: Dodecylamine 0.0003 % w/w, Tetronic 1307 0.05, pH 7.8"}, "[15]": {"conditions": "Table 2B: Dodecylamine 0.0005 % w/w, Tetronic 1307 0.05, pH 7.8"}}}
{"smiles": "CCCCCCCCCCCCCCCCN", "note": "[Cetylamine]", "values": [{"measurement": "Log Drop", "setting": "[1]; [8]", "value": 1.51}, {"measurement": "Log Drop", "setting": "[1]; [9]", "value": 2.89}, {"measurement": "Log Drop", "setting": "[1]; [10]", "value": 1.97}, {"measurement": "Log Drop", "setting": "[1]; [11]", "value": 2.89}, {"measurement": "Log Drop", "setting": "[2]; [8]", "value": 1.14}, {"measurement": "Log Drop", "setting": "[2]; [9]", "value": 1.3}, {"measurement": "Log Drop", "setting": "[2]; [10]", "value": 2.76}, {"measurement": "Log Drop", "setting": "[2]; [11]", "value": 1.48}, {"measurement": "Log Drop", "setting": "[3]; [8]", "value": 4.43}, {"measurement": "Log Drop", "setting": "[3]; [9]", "value": 4.49}, {"measurement": "Log Drop", "setting": "[3]; [10]", "value": 3.95}, {"measurement": "Log Drop", "setting": "[3]; [11]", "value": 4.49}, {"measurement": "Log Drop", "setting": "[4]; [8]", "value": 4.18}, {"measurement": "Log Drop", "setting": "[4]; [9]", "value": 2.35}, {"measurement": "Log Drop", "setting": "[4]; [10]", "value": 3.76}, {"measurement": "Log Drop", "setting": "[4]; [11]", "value": 3.61}, {"measurement": "Log Drop", "setting": "[5]; [8]", "value": 4.81}, {"measurement": "Log Drop", "setting": "[5]; [9]", "value": 4.18}, {"measurement": "Log Drop", "setting": "[5]; [10]", "value": 4.81}, {"measurement": "Log Drop", "setting": "[5]; [11]", "value": 4.79}]}
{"smiles": "CCCCCCCCCCCCCCCC[n+]1ccccc1", "note": "[Cetylpyridinium Chloride, reference compound]", "values": [{"measurement": "Log Drop", "setting": "[1]; [12]", "value": 4.41}, {"measurement": "Log Drop", "setting": "[1]; [13]", "value": 0.12}, {"measurement": "Log Drop", "setting": "[2]; [12]", "value": ">4.08"}, {"measurement": "Log Drop", "setting": "[2]; [13]", "value": 1.06}, {"measurement": "remaining content left in solution, Acuvue", "setting": "[6]", "value": 3.3, "unit": "ppm"}, {"measurement": "remaining content left in solution, Purevision", "setting": "[6]", "value": 1.3, "unit": "ppm"}, {"measurement": "remaining content left in solution, Without Lens", "setting": "[6]", "value": 42.7, "unit": "ppm"}]}
{"smiles": "CCCCCCCCCCCCN", "note": "[Dodecylamine, reference compound]", "values": [{"measurement": "Log Drop", "setting": "[1]; [14]", "value": 0.91}, {"measurement": "Log Drop", "setting": "[1]; [15]", "value": 1.77}, {"measurement": "Log Drop", "setting": "[2]; [14]", "value": 0.09}, {"measurement": "Log Drop", "setting": "[2]; [15]", "value": 0.16}, {"measurement": "Log Drop", "setting": "[3]; [14]", "value": 1.4}, {"measurement": "Log Drop", "setting": "[3]; [15]", "value": 1.36}, {"measurement": "Log Drop", "setting": "[4]; [14]", "value": 0.46}, {"measurement": "Log Drop", "setting": "[4]; [15]", "value": 0.46}, {"measurement": "Log Drop", "setting": "[5]; [14]", "value": 0.34}, {"measurement": "Log Drop", "setting": "[5]; [15]", "value": 0.12}, {"measurement": "antimicrobial activity", "setting": "[7]", "value": "very weak antimicrobial activity"}, {"measurement": "antimicrobial activity", "setting": "[7]; listed as dodecylamine", "value": "not qualified as a disinfectant for contact lens care"}, {"measurement": "remaining content left in solution, Acuvue", "setting": "[6]", "value": 35.0, "unit": "ppm"}, {"measurement": "remaining content left in solution, Purevision", "setting": "[6]", "value": 14.1, "unit": "ppm"}, {"measurement": "remaining content left in solution, Without Lens", "setting": "[6]", "value": 44.4, "unit": "ppm"}]}
{"smiles": "CCCCCCCCCCCCCC(=O)NCCCN(C)C", "note": "[Myristylamidopropyl-dimethylamine]", "values": [{"measurement": "remaining content left in solution, Acuvue", "setting": "[6]", "value": 18.2, "unit": "ppm"}, {"measurement": "remaining content left in solution, Purevision", "setting": "[6]", "value": 4.7, "unit": "ppm"}, {"measurement": "remaining content left in solution, Without Lens", "setting": "[6]", "value": 43.5, "unit": "ppm"}]}
